Earlier results in patent publication US11304902B2, “Pharmaceutical compositions, preparation and uses thereof” (CURADIGM SAS, priority 2014, dated 2022).

Legend:
Conditions in all cases: human CYP enzyme
CYP1A = system: CYP1A
CYP1A1 = target: T1, CYP1A1 (Homo sapiens, UniProt P04798)
T1 sequence (P04798 1-512): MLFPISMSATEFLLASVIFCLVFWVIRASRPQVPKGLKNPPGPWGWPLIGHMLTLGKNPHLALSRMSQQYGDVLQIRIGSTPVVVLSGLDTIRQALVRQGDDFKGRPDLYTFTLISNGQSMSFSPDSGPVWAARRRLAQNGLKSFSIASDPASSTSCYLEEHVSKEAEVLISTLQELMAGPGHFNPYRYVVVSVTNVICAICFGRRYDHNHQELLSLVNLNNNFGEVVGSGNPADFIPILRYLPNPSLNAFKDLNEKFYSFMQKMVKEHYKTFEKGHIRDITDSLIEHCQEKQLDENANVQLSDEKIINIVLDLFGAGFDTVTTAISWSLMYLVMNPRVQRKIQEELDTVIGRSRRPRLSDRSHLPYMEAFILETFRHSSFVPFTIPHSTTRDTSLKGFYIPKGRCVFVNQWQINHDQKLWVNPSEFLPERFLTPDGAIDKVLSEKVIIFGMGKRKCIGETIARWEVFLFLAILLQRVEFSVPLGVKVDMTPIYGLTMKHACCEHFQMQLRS

CYP1A2 = target: T2, CYP1A2 (Homo sapiens, UniProt P05177)
T2 sequence (P05177 1-516): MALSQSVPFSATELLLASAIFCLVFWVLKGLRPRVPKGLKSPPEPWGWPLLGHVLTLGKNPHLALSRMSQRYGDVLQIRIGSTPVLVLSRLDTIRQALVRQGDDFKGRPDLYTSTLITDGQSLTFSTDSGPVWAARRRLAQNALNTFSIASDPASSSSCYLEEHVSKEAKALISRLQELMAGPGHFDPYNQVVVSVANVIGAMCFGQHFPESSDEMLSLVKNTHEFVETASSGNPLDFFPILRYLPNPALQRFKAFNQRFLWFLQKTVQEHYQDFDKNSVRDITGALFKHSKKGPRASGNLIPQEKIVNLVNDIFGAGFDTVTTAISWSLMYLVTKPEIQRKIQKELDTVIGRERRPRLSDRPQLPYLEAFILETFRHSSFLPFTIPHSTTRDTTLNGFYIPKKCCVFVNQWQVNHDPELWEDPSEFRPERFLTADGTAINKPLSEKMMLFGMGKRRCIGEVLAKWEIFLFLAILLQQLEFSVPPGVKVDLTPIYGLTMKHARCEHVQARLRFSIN

CYP2C8 = target: T3, CYP2C8 (Homo sapiens, UniProt P10632)
T3 sequence (P10632 1-490): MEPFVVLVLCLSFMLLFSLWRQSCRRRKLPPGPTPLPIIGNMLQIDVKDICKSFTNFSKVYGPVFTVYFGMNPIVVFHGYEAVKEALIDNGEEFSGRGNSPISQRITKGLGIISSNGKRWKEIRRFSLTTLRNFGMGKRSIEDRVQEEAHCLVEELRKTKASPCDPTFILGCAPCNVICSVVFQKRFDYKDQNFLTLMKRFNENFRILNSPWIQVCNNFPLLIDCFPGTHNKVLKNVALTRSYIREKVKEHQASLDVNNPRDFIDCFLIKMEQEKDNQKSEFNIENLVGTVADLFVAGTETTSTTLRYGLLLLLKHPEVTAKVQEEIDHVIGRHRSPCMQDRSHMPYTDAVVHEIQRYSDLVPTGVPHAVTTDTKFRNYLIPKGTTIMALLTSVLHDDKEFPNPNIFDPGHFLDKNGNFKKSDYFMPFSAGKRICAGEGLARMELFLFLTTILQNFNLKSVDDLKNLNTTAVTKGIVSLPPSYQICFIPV

CYP3A4 = CYP3A4 (Homo sapiens, UniProt P08684)
CYP11B1 = target: T4, CYP11B1 (Homo sapiens, UniProt P15538)
T4 sequence (P15538 25-503): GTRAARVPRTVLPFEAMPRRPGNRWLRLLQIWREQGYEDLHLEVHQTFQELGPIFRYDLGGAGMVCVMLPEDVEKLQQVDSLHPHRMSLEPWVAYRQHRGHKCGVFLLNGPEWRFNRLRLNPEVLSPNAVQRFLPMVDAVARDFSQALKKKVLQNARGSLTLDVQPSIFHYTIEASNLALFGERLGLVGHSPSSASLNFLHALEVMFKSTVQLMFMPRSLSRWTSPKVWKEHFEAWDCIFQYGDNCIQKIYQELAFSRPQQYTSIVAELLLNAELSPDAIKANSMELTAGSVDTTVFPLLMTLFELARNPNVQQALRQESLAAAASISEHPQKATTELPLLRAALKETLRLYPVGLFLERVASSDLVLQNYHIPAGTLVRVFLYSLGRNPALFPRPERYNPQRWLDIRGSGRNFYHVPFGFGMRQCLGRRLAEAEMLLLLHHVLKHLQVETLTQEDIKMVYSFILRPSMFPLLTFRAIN

CYP19 = target: T5, CYP19 (Homo sapiens, UniProt P11511)
T5 sequence (P11511 1-503): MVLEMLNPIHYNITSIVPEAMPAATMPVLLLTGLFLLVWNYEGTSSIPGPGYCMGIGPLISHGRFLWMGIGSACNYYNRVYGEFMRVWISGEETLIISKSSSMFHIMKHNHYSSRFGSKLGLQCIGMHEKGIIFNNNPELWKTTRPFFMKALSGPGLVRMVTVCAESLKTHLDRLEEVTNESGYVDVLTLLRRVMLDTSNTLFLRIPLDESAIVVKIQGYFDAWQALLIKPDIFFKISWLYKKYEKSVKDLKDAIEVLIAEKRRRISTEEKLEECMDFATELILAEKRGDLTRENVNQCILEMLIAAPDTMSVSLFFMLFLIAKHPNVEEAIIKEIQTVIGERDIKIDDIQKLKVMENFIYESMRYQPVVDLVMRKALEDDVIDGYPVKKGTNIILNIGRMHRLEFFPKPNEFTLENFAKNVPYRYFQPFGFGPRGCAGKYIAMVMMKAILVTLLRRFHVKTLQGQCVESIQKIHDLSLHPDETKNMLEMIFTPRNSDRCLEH

Chain of CYP3A4 (P08684 whole entry): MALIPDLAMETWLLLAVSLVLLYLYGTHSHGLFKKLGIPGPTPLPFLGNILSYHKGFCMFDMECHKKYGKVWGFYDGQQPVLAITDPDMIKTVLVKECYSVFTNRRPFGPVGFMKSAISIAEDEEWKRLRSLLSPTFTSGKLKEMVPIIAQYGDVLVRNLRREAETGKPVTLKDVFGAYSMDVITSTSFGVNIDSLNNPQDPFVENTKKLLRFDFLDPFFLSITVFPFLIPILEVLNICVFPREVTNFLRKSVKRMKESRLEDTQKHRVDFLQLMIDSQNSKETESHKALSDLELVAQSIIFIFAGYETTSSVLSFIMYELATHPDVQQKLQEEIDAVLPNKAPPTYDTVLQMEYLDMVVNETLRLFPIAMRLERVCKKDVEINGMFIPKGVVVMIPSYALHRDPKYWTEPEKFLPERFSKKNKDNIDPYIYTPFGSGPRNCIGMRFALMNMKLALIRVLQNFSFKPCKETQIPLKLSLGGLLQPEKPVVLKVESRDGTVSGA

COc1ccc(-c2cc(=O)c3c(O)cc(O)cc3o2)cc1 [Acacetin, acacetin]
Inhibitor: role towards CYP1A (substrate / inhibitor / inducer) (CYP1A)

O=c1c(O)c(-c2ccc(O)c(O)c2)oc2cc(O)cc(O)c12 [Quercetin, quercetin]
Inhibitor: role towards CYP1A1 (substrate / inhibitor / inducer) (CYP1A1) | role towards CYP1A2 (substrate / inhibitor / inducer) (CYP1A2) | role towards CYP2C8 (substrate / inhibitor / inducer) (CYP2C8) | role towards CYP3A4 (substrate / inhibitor / inducer) (CYP3A4) | role towards CYP11B1 (substrate / inhibitor / inducer) (CYP11B1) | role towards CYP19 (substrate / inhibitor / inducer) (CYP19)
